From the NIST ThermoML archive (doi:10.1021/je100353j)

Assay: xn = mol fraction of the nth substance listed
Details: Liquid

COC(=O)OC [dimethyl carbonate] + C1CCCCC1
mass density [kg/m3]
Details	x1 = 0.1	x1 = 0.2	x1 = 0.3	x1 = 0.4	x1 = 0.5	x1 = 0.6	x1 = 0.7	x1 = 0.8	x1 = 0.9	x1 = 1
293.15 K, 100 kPa	797.9	818.3	842.3	866	893.7	923.6	957.5	991	1030.4	1069.8
293.15 K, 5000 kPa	802.2	822.7	846.9	870.7	898.5	928.4	962.3	995.8	1035.1	1074.4
293.15 K, 10000 kPa	806.2	827	851.2	875.3	903.1	933	966.9	1000.3	1039.5	1078.6
293.15 K, 20000 kPa	813.9	835	859.6	883.9	911.8	941.8	975.7	1009	1048	1086.9
293.15 K, 30000 kPa	821.3	842.7	867.5	892	920	950	983.8	1017.1	1055.8	1094.5
293.15 K, 40000 kPa	828.5	850.2	875.2	899.8	928	958	991.8	1025	1063.5	1101.9
298.15 K, 100 kPa	792.3	812.5	836.3	860	887.4	917	950.8	984.2	1023.2	1063.2
298.15 K, 5000 kPa	796.9	817.3	841.3	865.1	892.6	922.2	956	989.4	1028.2	1068
298.15 K, 10000 kPa	801.2	821.8	846	870	897.5	927.1	960.8	994.2	1032.8	1072.4
298.15 K, 20000 kPa	809.2	830.2	854.6	878.8	906.5	936.1	969.8	1003.1	1041.5	1080.8
298.15 K, 30000 kPa	816.5	837.8	862.5	887	914.8	944.5	978.2	1011.4	1049.7	1088.7
298.15 K, 40000 kPa	823.2	844.8	869.8	894.5	922.5	952.3	986.1	1019.3	1057.4	1096.2
303.15 K, 100 kPa	786.9	806.9	830.4	854.1	881.2	910.1	944.1	977.4	1015.8	1056.5
303.15 K, 5000 kPa	791.4	811.7	835.4	859.2	886.4	915.4	949.3	982.6	1020.9	1061.3
303.15 K, 10000 kPa	796	816.5	840.4	864.4	891.6	920.6	954.5	987.7	1025.8	1065
303.15 K, 20000 kPa	804.5	825.3	849.5	873.8	901.2	930.3	964.1	997.1	1035	1074.7
303.15 K, 30000 kPa	812.1	833.4	857.9	882.3	909.9	939.1	972.8	1005.8	1043.6	1082.9
303.15 K, 40000 kPa	819	840.7	865.4	890.1	917.8	947.2	980.9	1013.8	1051.4	1090.4
308.15 K, 100 kPa	781.2	801.4	824.4	847.9	874.8	903.4	936.9	969.7	1008.6	1049.8
308.15 K, 5000 kPa	786.1	806.5	829.7	853.4	880.3	908.9	942.3	975.1	1013.7	1054.6
308.15 K, 10000 kPa	790.8	811.4	834.8	858.6	885.6	914.2	947.7	980.4	1018.8	1059.4
308.15 K, 20000 kPa	799.5	820.5	844.2	868.3	895.5	924.2	957.6	990.2	1028.4	1068.5
308.15 K, 30000 kPa	807.4	828.7	852.8	877.1	904.4	933.3	966.7	999.3	1037.3	1077
308.15 K, 40000 kPa	814.6	836.3	860.6	885.2	912.7	941.7	975	1007.6	1045.4	1084.8
313.15 K, 100 kPa	775.6	795.8	818.5	841.9	868.6	896.7	929.7	962.3	1001.1	1043
313.15 K, 5000 kPa	780.8	801.3	824.1	847.7	874.4	902.6	935.5	968	1006.6	1048.1
313.15 K, 10000 kPa	785.6	806.2	829.3	853	879.8	908.1	941	973.5	1011.9	1053
313.15 K, 20000 kPa	794.8	815.8	839.2	863.2	890.2	918.5	951.4	983.8	1021.8	1062.3
313.15 K, 30000 kPa	802.9	824.2	848	872.2	899.4	927.9	960.8	993.1	1030.9	1071
313.15 K, 40000 kPa	810.5	832.1	856.2	880.7	908	936.7	969.5	1001.9	1039.4	1079
